The record followed here is patent publication US20210261569A1, “FUSED HETEROCYCLIC DERIVATIVES HAVING SELECTIVE BACE1 INHIBITORY ACTIVITY” (Shionogi & Co., Ltd., priority 2018, published 2021).

One series in a line: Metabolic stability test. The settings on record: human liver microsomes 0.5 mg protein/mL, NADPH, 37° C. The class given is in vitro ADME. The protocol: Using a commercially available pooled human liver microsomes, a compound of the present invention was reacted for a constant time, a remaining rate was calculated by comparing a reacted sample and an unreacted sample, thereby, a degree of metabolism in liver was assessed.
A reaction was performed (oxidative reaction) at 37° C. for 0 minute or 30 minutes in the presence of 1 mmol/L NADPH in 0.2 mL of a buffer (50 mmol/L Tris-HCl pH 7.4, 150 mmol/L potassium chloride, 10 mmol/L magnesium chloride) containing 0.5 mg protein/mL of human liver microsomes. After the reaction, 50 μL of the reaction solution was added to 100 μL of a methanol/acetonitrile=1/1 (v/v), mixed and centrifuged at 3000 rpm for 15 minutes. The compound of the present invention in the supernatant was quantified by LC/MS/MS or solid phase extraction (SPE)/MS, and a remaining amount of the compound of the present invention after the reaction was calculated, letting a compound amount at 0 minute reaction time to be 100%.
On the technique in general: Microsomes from liver hold many membrane-bound enzymes, among them those of drug oxidation.

The target in series [1] is T1, P-gp (MDR1 expressing LLC-PK1 cells) (Homo sapiens, UniProt P08183).
T1 construct: host or cells: LLC-PK1 (porcine kidney) cells
T1 sequence (P08183 whole entry): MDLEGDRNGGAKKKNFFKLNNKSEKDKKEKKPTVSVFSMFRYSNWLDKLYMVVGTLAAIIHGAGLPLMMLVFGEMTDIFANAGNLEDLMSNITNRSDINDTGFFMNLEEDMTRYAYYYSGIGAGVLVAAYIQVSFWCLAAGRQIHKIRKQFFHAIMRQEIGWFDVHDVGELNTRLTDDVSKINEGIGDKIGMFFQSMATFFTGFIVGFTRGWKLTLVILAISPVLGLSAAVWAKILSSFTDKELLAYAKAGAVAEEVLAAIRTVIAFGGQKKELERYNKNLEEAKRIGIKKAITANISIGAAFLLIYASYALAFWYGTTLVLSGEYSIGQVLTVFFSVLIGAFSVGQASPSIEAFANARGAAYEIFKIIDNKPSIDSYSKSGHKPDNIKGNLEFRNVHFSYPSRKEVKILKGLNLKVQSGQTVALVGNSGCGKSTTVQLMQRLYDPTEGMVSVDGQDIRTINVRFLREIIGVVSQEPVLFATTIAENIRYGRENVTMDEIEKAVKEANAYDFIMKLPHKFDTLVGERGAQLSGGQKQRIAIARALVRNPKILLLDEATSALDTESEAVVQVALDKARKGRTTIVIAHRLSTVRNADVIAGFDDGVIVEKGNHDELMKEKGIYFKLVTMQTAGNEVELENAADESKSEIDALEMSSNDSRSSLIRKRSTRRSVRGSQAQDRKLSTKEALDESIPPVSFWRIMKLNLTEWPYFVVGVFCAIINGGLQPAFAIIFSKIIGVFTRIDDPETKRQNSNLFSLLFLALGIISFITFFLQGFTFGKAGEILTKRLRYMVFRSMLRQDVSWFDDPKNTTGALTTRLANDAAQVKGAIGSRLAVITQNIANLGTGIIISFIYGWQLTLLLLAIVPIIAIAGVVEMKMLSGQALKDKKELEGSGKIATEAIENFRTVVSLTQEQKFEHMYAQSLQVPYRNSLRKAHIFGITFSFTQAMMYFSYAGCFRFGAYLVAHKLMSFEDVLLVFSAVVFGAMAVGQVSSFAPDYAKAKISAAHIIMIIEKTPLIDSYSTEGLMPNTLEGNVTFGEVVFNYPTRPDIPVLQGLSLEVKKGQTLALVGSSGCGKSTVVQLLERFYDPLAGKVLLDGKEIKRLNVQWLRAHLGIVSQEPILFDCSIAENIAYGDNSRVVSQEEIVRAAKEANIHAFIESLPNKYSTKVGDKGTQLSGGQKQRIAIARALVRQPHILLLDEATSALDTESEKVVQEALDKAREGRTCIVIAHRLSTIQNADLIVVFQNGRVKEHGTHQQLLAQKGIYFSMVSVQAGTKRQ
The series is described as follows: P-gp substrate test. The class given is in vitro ADME. The settings on record: MDR1 expressing LLC-PK1 cells vs parent LLC-PK1 cells. As to the method:
1. MDR1 expressing LLC-PK1 cells and its parent cells were routinely cultured in Medium A (Medium 199 (Invitrogen) supplemented with 10% FBS (Invitrogen), gentamycin (0.05 mg/mL, Invitrogen) and hygromycin B (100 μg/mL, Invitrogen)) at 37° C. under 5% CO2/95% 02 gasses. For the transport experiments, these cells were seeded on Transwell (Registered trademark) insert (96-well, pore size: 0.4 μm, Coaster) at a density of 1.4×10^4 cells/insert and added Medium B (Medium 199 supplemented with 10% FBS and gentamycin at 0.05 mg/mL) to the feeder tray. These cells were incubated in a CO2 incubator (5% CO2/95% 02 gasses, 37° C.) and replace apical and basolateral culture medium every 48-72 hr after seeding. These cells were used between 4 and 6 days after seeding. 2. The medium in the culture insert seeded with MDR1 expressing cells or parent cells were removed by aspiration and rinsed by HBSS. The apical side (140 μL) or basolateral side (175 μL) was replaced with transport buffer containing reference substrates and the present invention and then an aliquot (50 μL) of transport buffer in the donor side was collected to estimate initial concentration of reference substrate and the present invention. After incubation for designed time at 37° C., an aliquot (50 μL) of transport buffer in the donor and receiver side were collected. Assay was performed by duplicate or triplicate. 3. Reference substrate and the present invention in the aliquot was quantified by LC/MS/MS.
Permeated amounts across monolayers of MDR1 expressing and parent cells were determined, and permeation coefficients (Pe) were calculated using Excel 2003 from the following equitation:
Pe (cm/sec)=Permeated amount (pmol)/area of cell membrane (cm^2)/initial concentration (nM)/incubation time (sec) Where, permeated amount was calculated from permeation concentration (nM, concentration of the receiver side) of the substance after incubation for the defined time (sec) multiplied by volume. (mL) and area of cell membrane was used 0.1433 (cm2). The efflux ratio was calculated using the following equation:
Efflux Ratio=Basolateral-to-Apical Pe/Apical-to-Basolateral Pe
The net flux was calculated using the following equation:
Net flux=Efflux Ratio in MDR1 expressing cells/Efflux Ratio in parent cells

Series [2] deals with T2, human ether-a-go-go related gene (hERG) channel (Homo sapiens, UniProt Q12809).
T2 construct: expressed in transfected cells; host or cells: CHO cells
T2 sequence (Q12809 whole entry): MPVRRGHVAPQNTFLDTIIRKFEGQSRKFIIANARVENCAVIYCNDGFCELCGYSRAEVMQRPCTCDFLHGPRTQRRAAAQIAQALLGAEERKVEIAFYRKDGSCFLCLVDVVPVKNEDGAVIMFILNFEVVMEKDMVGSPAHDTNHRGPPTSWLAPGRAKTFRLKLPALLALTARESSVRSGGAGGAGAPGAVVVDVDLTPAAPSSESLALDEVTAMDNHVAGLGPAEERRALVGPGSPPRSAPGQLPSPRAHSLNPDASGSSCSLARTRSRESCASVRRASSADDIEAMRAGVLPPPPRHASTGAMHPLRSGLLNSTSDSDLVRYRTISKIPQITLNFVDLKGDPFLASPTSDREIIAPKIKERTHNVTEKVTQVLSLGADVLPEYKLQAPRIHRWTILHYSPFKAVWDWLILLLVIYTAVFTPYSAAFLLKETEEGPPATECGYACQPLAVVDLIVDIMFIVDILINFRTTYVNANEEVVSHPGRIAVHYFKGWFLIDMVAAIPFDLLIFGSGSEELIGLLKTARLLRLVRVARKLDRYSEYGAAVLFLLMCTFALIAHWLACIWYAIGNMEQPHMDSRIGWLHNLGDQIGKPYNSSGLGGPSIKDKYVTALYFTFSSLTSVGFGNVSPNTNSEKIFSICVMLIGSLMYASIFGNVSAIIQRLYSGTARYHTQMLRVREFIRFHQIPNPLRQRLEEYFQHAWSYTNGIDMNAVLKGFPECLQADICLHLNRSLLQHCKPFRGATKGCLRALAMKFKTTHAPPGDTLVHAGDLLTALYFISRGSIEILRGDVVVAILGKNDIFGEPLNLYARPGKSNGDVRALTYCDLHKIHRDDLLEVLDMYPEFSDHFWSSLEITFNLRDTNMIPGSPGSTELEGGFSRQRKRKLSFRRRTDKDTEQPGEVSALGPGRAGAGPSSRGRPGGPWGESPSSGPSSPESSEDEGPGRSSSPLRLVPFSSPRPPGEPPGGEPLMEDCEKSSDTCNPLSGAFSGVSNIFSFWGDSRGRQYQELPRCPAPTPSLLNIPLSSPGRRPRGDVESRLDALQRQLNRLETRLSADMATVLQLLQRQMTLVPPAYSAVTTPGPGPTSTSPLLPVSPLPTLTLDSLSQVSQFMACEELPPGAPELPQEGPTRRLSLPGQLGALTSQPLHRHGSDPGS
As to the kind of experiment: hERG test (whole cell patch clamp, QPatch). The class given is cell-based. The settings on record: CHO cells expressing hERG, tail peak current. The source says: For the purpose of assessing risk of an electrocardiogram QT interval prolongation, effects on delayed rectifier K+ current (IKr), which plays an important role in the ventricular repolarization process of the compound of the present invention, was studied using CHO cells expressing human ether-a-go-go related gene (hERG) channel.
A cell was retained at a membrane potential of −80 mV by whole cell patch clamp method using an automated patch clamp system (QPatch; Sophion Bioscience A/S). After application of leak potential at −50 mV, IKr induced by depolarization pulse stimulation at +20 mV for 2 seconds and, further, repolarization pulse stimulation at −50 mV for 2 seconds was recorded.
After the generated current was stabilized, extracellular solution (NaCl: 145 mmol/L, KCl: 4 mmol/L, CaCl2:2 mmol/L MgCl2:1 mmol/L, 1 mmol/L, HEPES (4-(2-hydroxyethyl)-1-piperazineethanesulfonic acid: 10 mmol/L, glucose:10 mmol/L pH=7.4) in which the compound of the present invention have been dissolved at an objective concentration was applied to the cell under the room temperature condition for 10 minutes. From the recording IKr, an absolute value of the tail peak current was measured based on the current value at the resting membrane potential using an analysis software (QPatch assay software; Sophion Bioscience A/S). Further, the % inhibition relative to the tail peak current before application of the compound of the present invention was calculated, and compared with the vehicle-applied group (0.1% dimethyl sulfoxide solution) to assess influence of the compound of the present invention on IKr.

Turning to `C[C@H]1OC[C@H]2[C@@H]1OC(N)=N[C@]2(CF)c1cc(NC(=O)c2cnc(OCF)cn2)cc(F)c1F` [Compound I-070], the “Remaining rate (%) at 30 min” value in the series “Metabolic stability test” is on record as 52%. For the same molecule, the “P-gp ER ratio” value in series [1] is 3.8. Besides, the “hERG inhibition (%) at 3 μM” value in series [2] is 9.4%.

As to `C[C@@H]1OC[C@H]2[C@@H]1OC(N)=N[C@]2(CF)c1cc(NC(=O)c2cnc(OC(F)F)cn2)ccc1F` [Compound I-087], in the series “Metabolic stability test”, the “Remaining rate (%) at 30 min” value is reported as 85%. The “P-gp ER ratio” value in series [1] is given as 5.8. Besides, the “hERG inhibition (%) at 3 μM” value in series [2] worked out at 28.7%.

Consider `CC1(C)OC[C@H]2[C@@H]1OC(N)=N[C@]2(CF)c1cc(NC(=O)c2cnc(OCF)cn2)ccc1F` [Compound I-096], for which the “Remaining rate (%) at 30 min” value in “Metabolic stability test” worked out at 65%. Moreover, in series [1], the “P-gp ER ratio” value stood at 3.3. In addition, the “hERG inhibition (%) at 3 μM” value in series [2] is given as 19.4%.

Consider `NC1=N[C@](CF)(c2cc(NC(=O)c3cnc(OCF)cn3)ccc2F)[C@H]2CO[C@@H](CF)[C@H]2O1` [Compound I-112], for which the “Remaining rate (%) at 30 min” value in “Metabolic stability test” was found to be 91%. Also, the “P-gp ER ratio” value in series [1] is recorded as 5.3. The “hERG inhibition (%) at 3 μM” value in series [2] is 5%.

On to `NC1=N[C@](CF)(c2cc(NC(=O)c3cnc(OCF)cn3)ccc2F)[C@H]2[C@H](CF)OC[C@H]2O1` [Compound I-114], for which, in the series “Metabolic stability test”, the “Remaining rate (%) at 30 min” value came out at 102%. Also, the “P-gp ER ratio” value in series [1] is recorded as 2.1. Moreover, in series [2], the “hERG inhibition (%) at 3 μM” value is given as 12.4%.

On to `NC1=N[C@](CF)(c2cc(NC(=O)c3cnc(OCF)cn3)ccc2F)[C@H]2[C@H](CCF)OC[C@H]2O1` [Compound I-115], for which, in the series “Metabolic stability test”, the “Remaining rate (%) at 30 min” value came out at 93%. In series [1], the “P-gp ER ratio” value amounted to 3. Further, in series [2], the “hERG inhibition (%) at 3 μM” value is 9.9%.
